From US9427433B2, “Methods and compositions for enhancing fertility and/or inhibiting pregnancy failure and restoring glucose tolerance” (Queen's University at Kingston, priority 2011, dated 2016)

What was measured:
diabetic NOD mice = assay: Weekly non-fasting blood glucose monitoring; assay type: in vivo, mouse; conditions: FIG. 16A
Description: Through the use of Ultra Glucosemeter (Accu-Chek Aviva/Roche Diagnostic, Laval, Quebec, Canada) blood glucose levels for all mice were monitored via tail venipuncture once a week on a regular basis beginning at the age of 8 weeks. Animals with non-fasting or those having blood glucose values ≧14.9 mmol/L after the glucose challenge (glucose tolerance) test were identified as diabetic. […] The selected mice were 9 weeks old and were treated with 0.1 mg/kg q2d of tacrolimus (Prograf (5 mg/ml), Astellas) subcutaneously administered in 0.2 ml saline for three weeks after which animals were mated to males of the same strain (See FIG. 1). Vehicle (0.2 ml saline, s.q.) treated hyperglycemic NOD female mice were allowed two weeks in diabetes before they were mated to males of the same strain. Facial (mandibular) venous blood samples were collected from treated animals at 24 and 48 hours between injections and at pregnancy days 0.5, 2.5, 4.5, 6.5, 8.5, 10.5, 12.5, 14.5, 16.5 and 18.5 respectively following a standard procedure for facial bleed in mice (Golde et al Lab Anim (NY) 2005 34:39-43).

NOD, NZO and DIO mice = assay: Still births, malformations and live births of near-term pups; assay type: in vivo, mouse
Source text: FIGS. 13A through 13G show results of short term administration of tacrolimus reducing the rates of stillbirths and malformations associated with the diabetic gestation and restoration of normal term pregnancy with high rate of live births in the treated diabetic and obese mice. Numbers and external morphological features of near term (Gd.16.5) pups delivered to tacrolimus-treated versus those delivered to vehicle-treated diabetic and their normoglycemic control mice are depicted in FIGS. 13A through 13C, respectively. Fetal viability rates and external features of pups delivered to diabetic and obese mice with those of the tacrolimus-treated obese and type 2 diabetic mice are depicted in FIGS. 13D and 13E, respectively. Graph bars of FIGS. 13F and 13G display figure statistics.
The successful use of tacrolimus in reducing still birth rates and preventing fetal malformations in the diabetic and obese mice is supportive of the etiological role for IFN-γ in the pathophysiology of fetal loss in diabetes and obese subjects. FIG. 13 provides a comparison between the external morphological features and liver versus still birth rates in near-term (Gd.16.5) pups delivered to tacrolimus-treated NOD (FIG. 13A) versus vehicle-treated diabetic NOD (FIG. 13B) and their normoglycemic control mice (FIG. 13C). […]

[1] = system: female NZO mice fed a continuous high fat diet; assay: Weight loss, comparison of macrolides; assay type: in vivo, mouse; conditions: tacrolimus 0.05 or 0.1 mg/kg, pimecrolimus 0.1 mg/kg, sirolimus 0.1 mg/kg s.c. every other day for three weeks; vs vehicle
Source text: (§1) For the comparative evaluation of other macrolide drugs to tacrolimus, mice starting at 7 weeks of age were maintained on the high fat diet for a total of 13 weeks of study period. Mice were entered into the experiments when determined to be glucose intolerant as described above. Methods of drug administration and other experimental methods were as described above.

[2] = system: type 2 diabetes NZO mouse model; assay: HOMA-IR, HOMA-B and insulin sensitivity index (Si); assay type: in vivo
Description: Female mice were administered tacrolimus (0.1 mg/kg or 0.05 mg/kg, n=6/group), vehicle (n=10), pimecrolimus (0.1 mg/kg, n=6) or sirolimus (0.1 mg/kg, n=6) subcutaneously every other day for 3 weeks.
HOMA IR=fasting glucose (mmol/L)×fasting insulin ([…])/22.5 according to the method of Bonora E et al., 2000. Pancreatic β-Cell function (HOMA-B) was calculated according to the method of Tresaco B et al., 2005, HOMA-B=[20×[…]). Insulin sensitivity (Si) was determined according to the method of Matthews D et al., 1985. Si=[basal glucose]−[glucose 15 min]/15).

[3] = system: grossly obese and glucose intolerant NZO female mice; assay: Weight loss in grossly obese mice; assay type: in vivo, mouse; conditions: 0.1 mg/kg every other day for four weeks; vs vehicle, p<0.05
Description: Data shown are mean±SEM of changes in body mass in mice administered tacrolimus (0.1 mg/kg every other day) for four weeks starting at week 16 (N=10/group). Statistical difference between groups was measured by one-way ANOVA at 95% confidence.
For studies on a grossly obese state, mice were maintained on the 60% high fat diet for 24 weeks starting at 7 weeks of age and designated as being type II diabetic according to methods described above.

[4] = system: high fat fed female NZO mice; assay: Ovarian histology of macrolide-treated chronically high fat fed NZO mice; assay type: in vivo, mouse; conditions: chronically high fat diet fed NZO mice
Description: Statistical differences between groups were measured by two-way analysis of variance (ANOVA) followed by Bonferroni post-hock t-test comparing effect of all tested macrolides on mean follicular structure counts/unit area at 95% confidence. Scale bars=200 μm for B, D, F, G, H, I, J and 50 μm for A, C, E. N=10 (HFD-NZO), 6 per treatment group. A, C and E are higher magnifications of B, D and F respectively. * denoting ovarian cyst(s).
as §1

## C=CC[C@@H]1/C=C(\C)C[C@H](C)C[C@H](OC)[C@H]2O[C@@](O)(C(=O)C(=O)N3CCCC[C@H]3C(=O)O[C@H](/C(C)=C/[C@@H]3CC[C@@H](O)[C@H](OC)C3)[C@H](C)[C@@H](O)CC1=O)[C@H](C)C[C@@H]2OC [tacrolimus]
Diabetic NOD mice
  weekly non-fasting blood glucose (glycemic phenotype): effective in restoring normal glycemic phenotype
NOD, NZO and DIO mice; near-term (Gd.16.5) pups
  rates of still births and malformations: reduced the rates of still births and malformations
NOD, NZO and DIO mice; treated diabetic and obese mice
  term pregnancy and live births: restored normal term pregnancy with high rate of live births
[1]
  weight loss: significantly induced weight loss
[2]; p<0.001 vs vehicle
  insulin resistance (HOMA-IR): significantly reduced insulin resistance
[2]; p<0.01 vs vehicle
  insulin sensitivity (Si): enhanced insulin sensitivity
[2]; p<0.05 vs vehicle
  pancreatic β-cell function (HOMA-B): enhanced pancreatic β-cell function
[3]
  weight loss: induced a significant weight loss
[4]
  follicular growth pattern in the ovaries: restored follicular growth pattern
[4]; p<0.001
  ovarian cyst formation: inhibited the development of ovarian cysts
[4]; vs untreated HFD-NZO
  ovarian follicular atresia: significantly inhibited ovarian follicular atresia (p<0.01)
